PubChem BioAssay AID1963963 (Molecular Pharmacology Branch, DTP, NCI, 2024)

Tested on: 958667-338-R-J2-PDC tumor spheroids viability
Test: Anticancer human tumor 958667-338-R-J2-PDC patient-derived colon adenocarcinoma cell line growth inhibition [PI3K]
Conditions: spheroids with HUVEC and MSC; for viability, T/C: stronger effect = lower value; active = viability on the fitted dose curve at most 10% of control; inactive = the rest
In short: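 Complex 3D spheroids (cancer cells + endothelial HUVEC + mesenchymal stem cells); drug pairs of targeted agent x inavolisib/alpelisib/duvelisib/copanlisib; half-log series from ~Cmax, max 10 microM if Cmax unknown; endpoint viability.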

[1] = curve of first compound, second compound 0.0316 µM
[2] = curve of first compound, second compound 0.1 µM
[3] = curve of first compound, second compound 0.316 µM
[4] = curve of first compound, second compound 1 µM
[5] = curve of first compound, second compound 3.16 µM
[6] = curve of first compound, second compound 10 µM
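Also: spheroids exposed to compounds for seven days before readout.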

Cn1cnc2c(F)c(Nc3ccc(Br)cc3Cl)c(C(=O)NOCCO)cc21 + CC(Nc1ncnc2nc[nH]c12)c1cc2cccc(Cl)c2c(=O)n1-c1ccccc1
280 nM: IC50 [4]
365 nM: IC50 [1]
261 nM: IC50 [2]
inactive: viability, T/C (second compound 0.0316 µM, first compound 0.00949 µM) 89.8% | viability, T/C (second compound 0.0316 µM, first compound 0.03 µM) 80.5% | viability, T/C (second compound 0.0316 µM, first compound 0.0949 µM) 71% | viability, T/C (second compound 0.0316 µM, first compound 0.3 µM) 52.2% | viability, T/C (second compound 0.0316 µM, first compound 0.949 µM) 35.5% | viability, T/C (second compound 0.0316 µM, first compound 3 µM) 20% | viability, T/C (second compound 0.1 µM, first compound 0.00949 µM) 84.3% | viability, T/C (second compound 0.1 µM, first compound 0.03 µM) 80.6% | viability, T/C (second compound 0.1 µM, first compound 0.0949 µM) 62.6% | viability, T/C (second compound 0.1 µM, first compound 0.3 µM) 49.3% | viability, T/C (second compound 0.1 µM, first compound 0.949 µM) 31.3% | viability, T/C (second compound 0.1 µM, first compound 3 µM) 20.3% | viability, T/C (second compound 0.316 µM, first compound 0.00949 µM) 80.7% | viability, T/C (second compound 0.316 µM, first compound 0.03 µM) 97.4% | viability, T/C (second compound 0.316 µM, first compound 0.0949 µM) 74.8% | viability, T/C (second compound 0.316 µM, first compound 0.3 µM) 53.3% | viability, T/C (second compound 0.316 µM, first compound 0.949 µM) 32.2% | viability, T/C (second compound 0.316 µM, first compound 3 µM) 19.8% | viability, T/C (second compound 1 µM, first compound 0.00949 µM) 73.3% | viability, T/C (second compound 1 µM, first compound 0.03 µM) 83.5% | viability, T/C (second compound 1 µM, first compound 0.0949 µM) 59.7% | viability, T/C (second compound 1 µM, first compound 0.3 µM) 48.2% | viability, T/C (second compound 1 µM, first compound 0.949 µM) 33.9% | viability, T/C (second compound 1 µM, first compound 3 µM) 17% | viability, T/C (second compound 3.16 µM, first compound 0.00949 µM) 85.3% | viability, T/C (second compound 3.16 µM, first compound 0.03 µM) 81.6% | viability, T/C (second compound 3.16 µM, first compound 0.0949 µM) 57% | viability, T/C (second compound 3.16 µM, first compound 0.3 µM) 44.3% | viability, T/C (second compound 3.16 µM, first compound 0.949 µM) 31.3% | viability, T/C (second compound 3.16 µM, first compound 3 µM) 13.3% | viability, T/C (second compound 10 µM, first compound 0.00949 µM) 78.3% | viability, T/C (second compound 10 µM, first compound 0.03 µM) 62.9% | viability, T/C (second compound 10 µM, first compound 0.0949 µM) 45.2% | viability, T/C (second compound 10 µM, first compound 0.3 µM) 41.7% | viability, T/C (second compound 10 µM, first compound 0.949 µM) 20.7% | viability, T/C (second compound 10 µM, first compound 3 µM) 10.4%
210 nM: IC50 [5]
363 nM: IC50 [3]
90.4 nM: IC50 [6]

CC(C)n1nc(-c2ccc3oc(N)nc3c2)c2c(N)ncnc21
80.6 nM [middle of 4 runs]: IC50 (curve of compound)
inactive: viability, T/C (compound 0.000316 µM) 93.8% [middle of 4 runs] | viability, T/C (compound 0.001 µM) 97.1% [middle of 4 runs] | viability, T/C (compound 0.01 µM) 94.7% [middle of 4 runs] | viability, T/C (compound 0.0316 µM) 72.6% [middle of 4 runs] | viability, T/C (compound 0.1 µM) 44.5% [middle of 4 runs]

Cn1ncnc1[C@H]1c2n[nH]c(=O)c3cc(F)cc(c23)N[C@@H]1c1ccc(F)cc1 + CC(Nc1ncnc2nc[nH]c12)c1cc2cccc(Cl)c2c(=O)n1-c1ccccc1
> 100 nM: IC50 [1] | IC50 [2] | IC50 [3] | IC50 [4] | IC50 [5] | IC50 [6]
inactive: viability, T/C (second compound 0.0316 µM, first compound 0.000316 µM) 103% | viability, T/C (second compound 0.0316 µM, first compound 0.001 µM) 114% | viability, T/C (second compound 0.0316 µM, first compound 0.00316 µM) 105% | viability, T/C (second compound 0.0316 µM, first compound 0.01 µM) 110% | viability, T/C (second compound 0.0316 µM, first compound 0.0316 µM) 113% | viability, T/C (second compound 0.0316 µM, first compound 0.1 µM) 98% | viability, T/C (second compound 0.1 µM, first compound 0.000316 µM) 103% | viability, T/C (second compound 0.1 µM, first compound 0.001 µM) 82.8% | viability, T/C (second compound 0.1 µM, first compound 0.00316 µM) 117% | viability, T/C (second compound 0.1 µM, first compound 0.01 µM) 126% | viability, T/C (second compound 0.1 µM, first compound 0.0316 µM) 119% | viability, T/C (second compound 0.1 µM, first compound 0.1 µM) 83.6% | viability, T/C (second compound 0.316 µM, first compound 0.000316 µM) 120% | viability, T/C (second compound 0.316 µM, first compound 0.001 µM) 114% | viability, T/C (second compound 0.316 µM, first compound 0.00316 µM) 111% | viability, T/C (second compound 0.316 µM, first compound 0.01 µM) 116% | viability, T/C (second compound 0.316 µM, first compound 0.0316 µM) 118% | viability, T/C (second compound 0.316 µM, first compound 0.1 µM) 94.7% | viability, T/C (second compound 1 µM, first compound 0.000316 µM) 109% | viability, T/C (second compound 1 µM, first compound 0.001 µM) 112% | viability, T/C (second compound 1 µM, first compound 0.00316 µM) 99.9% | viability, T/C (second compound 1 µM, first compound 0.01 µM) 100% | viability, T/C (second compound 1 µM, first compound 0.0316 µM) 95.2% | viability, T/C (second compound 1 µM, first compound 0.1 µM) 96.3% | viability, T/C (second compound 3.16 µM, first compound 0.000316 µM) 107% | viability, T/C (second compound 3.16 µM, first compound 0.001 µM) 109% | viability, T/C (second compound 3.16 µM, first compound 0.00316 µM) 99.2% | viability, T/C (second compound 3.16 µM, first compound 0.01 µM) 89.9% | viability, T/C (second compound 3.16 µM, first compound 0.0316 µM) 94.7% | viability, T/C (second compound 3.16 µM, first compound 0.1 µM) 89.8% | viability, T/C (second compound 10 µM, first compound 0.000316 µM) 93.7% | viability, T/C (second compound 10 µM, first compound 0.001 µM) 98.3% | viability, T/C (second compound 10 µM, first compound 0.00316 µM) 109% | viability, T/C (second compound 10 µM, first compound 0.01 µM) 89.9% | viability, T/C (second compound 10 µM, first compound 0.0316 µM) 83.2% | viability, T/C (second compound 10 µM, first compound 0.1 µM) 88.4%
